The target of data set [1] is T1, E. coli FlAsH-LexA (RecA-promoted LexA cleavage) (Escherichia coli, UniProt P0A7C2). The note with it: for rank order of activities, ortho mono-substitution on area A phenyl: FlAsH-LexA cleavage assay; for activity in FlAsH-LexA cleavage assay (in words): highest concentration 111 μM.
Description: (§6) IC50 values were routinely determined using the E. coli FlAsH-LexA cleavage assay previously used to perform HTS ([Mo et al., 2018]). In this assay RecA-promoted LexA cleavage is monitored using fluorescence polarization. […] Reactions were performed in 384-well plates and components were added as 10 μL additions of ATPγS, ssDNA and RecA, in buffer and 10 μL of E. coli FlAsH-LexA in buffer using a Janus liquid handler (Perkin-Elmer). Compound was added as a DMSO solution using a pin tool, and the final concentration of DMSO in the reaction was 1.2%. Once the reaction components were combined, reactions were centrifuged for 1 min at 500 rpm and incubated for 30 min at room temperature. Reactions were quenched with a 10 μL addition of 50 mM EDTA and plates were read on a Tecan Infinite F200 Pro plate reader (Tecan US, Inc., Morrisville, NC, United States). […] On each plate 32 positive (-RecA) and 32 negative controls (+RecA) in which DMSO without compound was added were used to define the range of mP and calculate the fraction inhibited.
(§7) IC50 values were estimated by non-linear least squares fitting to the data using Equation 1.
(§8) where FI = Fraction inhibited, [I] = Concentration of compound and n = Hill coefficient. Fitting was performed using Igor Pro (WaveMetrics Inc., Lake Oswego, OR, United States).
Data set [2] in a line: Solubility (inferred from titration curves in assay buffer; DMSO stocks). Format: physicochemical. The note with it: FlAsH-LexA cleavage assay buffer, aqueous buffer; suggested by normal titration curves in FlAsH-LexA assay buffer; read-out: aqueous solubility maintained up to. An excerpt:
Representative titrations for the compounds can be found in the Supplementary Figure 1.

The target in data set [3] is T1, E. coli FlAsH-LexA (RecA-promoted LexA cleavage). In words: biochemical.
Description: as §6, §7, §8
The target of data set [4] is T2, full length LexA from P. aeruginosa (RecA*-mediated cleavage) (Pseudomonas aeruginosa, UniProt P37452).
T2 construct: examining RecA^∗-mediated cleavage of full length LexA from P. aeruginosa; made in house
Kind of data set: Orthogonal 32P-LexA cleavage assay, full-length P. aeruginosa LexA. It is filed as biochemical. The procedure:
(§1) Full-length E. coli and P. aeruginosa LexA were engineered with a RRXS phosphorylation site on the N-terminus of the full-length protein, allowing for ^32P labeling by protein kinase A to produce ^32P-LexA, as described previously ([Mo et al., 2018]). Reactions contained 100 nM ^32P-LexA, 200 nM RecA and 10 μM ATPγS and the buffer conditions were identical to those in the HTS assay. Compounds were added in DMSO and the final concentration was 2%. Reactions were incubated for 30 min at room temperature after which 2 × Laemmli buffer was added to stop the assay. The stopped reactions were subjected to 15% SDS-PAGE and the gels were visualized via phosphorimaging on a Typhoon imager (GE Healthcare Bio-Sciences, Marlborough, MA, United States). The intact and cleaved bands were quantified using Quantity One (Bio-Rad, Hercules, CA, United States) and the fraction inhibited was calculated. […] Plots of fraction inhibited against compound concentration were fitted to Equation 1.

The nature of data set [5]: Cytotoxicity testing with HG2 cells. Format: cell-based.
For data set [6], the system named is ΔtolC E. coli. Kind of data set: Frequency of resistance (rifampin-resistance mutation rate). Format: cell-based. The procedure:
A starter culture of ΔtolC E. coli was cultured overnight at 37°C with shaking in LB broth. The next day the culture was diluted 3 × 10^7-fold in to LB broth. The dilution was used to produce four sets of twelve cultures, each containing 1 mL. To one set was added 10 μL of deionized H2O plus 10 μL of DMSO, to the second set was added 10 μL of 125 ng/mL ciprofloxacin in deionized H2O plus 10 μL of DMSO, to the third set was added 10 μL of deionized H2O plus 10 μL of a 10 mM solution of 14 in DMSO and to the fourth set was added 10 μL of 125 ng/mL ciprofloxacin in deionized H2O plus 10 μL of 14 in DMSO.
The 48 cultures were incubated at 37°C with shaking for 48 h. To determine the population size, spot plating was performed starting with 1 μL of the cultures diluted 10^5-fold. A 100 μL aliquot of each 10^5-fold dilution was transferred to a 96-well plate and serially diluted (10-fold dilutions) into LB broth. The dilutions (5 μL) were spotted on LB agar plates and the plates were incubated overnight at 37°C. To determine the rifampin resistant population, 999 μL of each 1 mL culture was centrifuged at 6000 rpm for 10 min to remove the cells from solution and the cells were suspended in 100 μL of autoclaved 0.15 M NaCl. The 100 μL solutions were plated on the LB plates containing 100 μg/mL rifampin and incubated for 2 days at 37°C. Following counting of the colonies the program bz-rates ([Gillet-Markowska et al., 2015]) was used to estimate mutation rates.

The subject of data set [7] is ΔtolC E. coli. Kind of data set: MIC of ciprofloxacin. Format: cell-based. The conditions noted are these: Escherichia coli.
For data set [8], the system named is recA promoter GFP reporter (SOS response). In words: Cell-based SOS reporter assay (GFP under recA promoter, ciprofloxacin-induced). Set-up: species or system E. coli MG1655 ΔsulA ΔtolC. The note with it: Escherichia coli, 2 h, read-out: IC50, GFP assay. The procedure:
An E. coli MG1655 strain lacking sulA (ΔsulA) and the tolC transporter (ΔtolC) ([Mo et al., 2016]) was transformed with a reporter plasmid in which gfp expression was under the control of the recA promoter (pMS201 pRecA GFP) ([Zaslaver et al., 2006]). To perform assays overnight, cultures of the reporter strain were diluted 100-fold in M9 minimal media and grown at 37°C with agitation to an OD595 of ∼0.6. For each reaction sample 100 μL of culture were mixed with 100 μL of M9 minimal media containing ciprofloxacin (256 ng/mL). Pre-diluted compounds were added (5 μL) in DMSO and cultures were incubated at 37°C with agitation for 2 h after which the cells were fixed by adding 200 μL of phosphate buffered saline, pH 7.4 containing 1% paraformaldehyde. After 1 h of fixing, the cells were spun down at 4,000 rpm and re-suspended in phosphate buffered saline, pH 7.4. Fixed cells were analyzed using flow cytometry (BD FACSCalibur, Ex/Em: 488 nm/530 nm) and the mean fluorescence of 20,000 cells in each condition was recorded.
Background: Reporter assays use an easily measured gene product as a stand-in for the process of interest.

Data set [9] has as its target T3, LexA-S119A / Cy5-labeled SOS operator DNA (Escherichia coli, UniProt P0A7C2, S119A).
T3 construct: made in house
In words: Electrophoretic mobility shift assay (EMSA), LexA binding to SOS operator DNA. The note with it: compound vs DMSO. The procedure:
Increasing concentrations (0–1 μM) of LexA-S119A were mixed with 10 nM SOS operator DNA labeled with Cy5 in EMSA running buffer (70 mM Tris-HCl pH 7.5, 10 mM MgCl2, 150 mM NaCl, 5 mM DTT, 0.1 mg/ml BSA, 10 ng/μL ssDNA, 5% glycerol, 0.04% bromophenol blue) in the presence of 50 μM of compound (or DMSO carrier). After incubation at room temperature for 30 min, 20 μL of each reaction was subjected to 6% native PAGE. Gels were visualized on a Typhoon Imager using default fluorescence filter settings for Cy5. Gel bands were quantified using ImageJ (NIH, Bethesda, MD, United States) to determine the fraction of bound DNA at each LexA concentration. Data were fitted to a variable-slope sigmoidal dose-response curve.
In general terms: In EMSA bound probe runs differently from free probe, usually more slowly.

The target in data set [10] is T4, full-length E. coli LexA (RecA*-induced cleavage) (Escherichia coli, UniProt P0A7C2).
T4 construct: Full-length E. coli and P. aeruginosa LexA were engineered with a RRXS phosphorylation site on the N-terminus of the full-length protein; made in house
Kind of data set: Orthogonal 32P-LexA cleavage assay, full-length E. coli LexA. It is filed as biochemical. The procedure:
as §1

Data set [11] addresses T5, full length E. coli LexA (Escherichia coli, UniProt P0A7C2).
T5 construct: a fluorescence-independent assay using a full-length version of E. coli LexA was employed; made in house
Kind of data set: Auto-proteolysis of 32P-labelled full length E. coli LexA in the absence of RecA. It is filed as biochemical. The procedure: (§2) Supplementary Figure 2. Binding of 14 to LexA alone. (a) Inhibition of the auto-proteolysis of 32P-labelleled full length E. coli LexA by 14 in the absence of RecA. All data represent the mean of two independent measurements and the error bars represent the range of error. The error of the IC50 value is the standard deviation of the fit of equation 1 to the data. (b) Thermal shift observed upon binding of 14 to full length E. coli LexA. The concentrations of LexA and 14 were 5 µM and 50 µM, respectively. The errors for the Tm values are the standard deviations of the fits of equation S1 to the data.
(§3) Cy5-labeled operator DNA Bound DNA
(§4) Supplementary Figure 3. LexA DNA binding activity is not impacted by 14. Varying concentrations of […]
(§5) (SOS box). The titrations were performed in the presence of DMSO or 40 μM of 14. The samples were separated on a non-denaturing polyacrylamide gel (at right) and the bound fraction calculated. […]

Data set [12] has as its target T5, full length E. coli LexA. In words: Thermal shift assay of LexA. It is filed as binding. The conditions noted are these: LexA 5 µM, compound 50 µM; LexA alone Tm 57.4 ± 0.4. As to the method:
as §2, §3, §4, §5

Bounds are passed on as bounds.

For orientation: solubility means the concentration that dissolves in the medium under given conditions. As usually defined, the IC50 is the point on the concentration scale where inhibition reaches its midpoint. A word on the CC50: it is the concentration at which the toxic effect on the cells reaches its halfway point. Read a high CC50 as lower toxicity to the cells. The MIC is the smallest concentration in the dilution series that meets the test's criterion for growth inhibition. One may read the Tm as the temperature at the midpoint of the melting transition.

T1 sequence (P0A7G6 2-353): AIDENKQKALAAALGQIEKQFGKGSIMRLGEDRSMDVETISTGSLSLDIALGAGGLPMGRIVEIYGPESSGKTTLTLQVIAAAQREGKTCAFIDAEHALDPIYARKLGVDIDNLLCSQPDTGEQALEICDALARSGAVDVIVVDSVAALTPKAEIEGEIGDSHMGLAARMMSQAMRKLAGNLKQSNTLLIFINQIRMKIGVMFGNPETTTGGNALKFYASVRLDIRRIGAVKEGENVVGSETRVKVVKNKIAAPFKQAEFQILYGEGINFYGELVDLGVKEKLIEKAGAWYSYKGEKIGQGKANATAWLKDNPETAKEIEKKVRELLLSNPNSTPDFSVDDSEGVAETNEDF
T1 sequence (P0A7C2 75-202): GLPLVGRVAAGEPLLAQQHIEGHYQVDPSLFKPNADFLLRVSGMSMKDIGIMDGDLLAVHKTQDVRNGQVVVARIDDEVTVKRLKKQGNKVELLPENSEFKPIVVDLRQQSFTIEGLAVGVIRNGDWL
T2 sequence (P37452 whole entry): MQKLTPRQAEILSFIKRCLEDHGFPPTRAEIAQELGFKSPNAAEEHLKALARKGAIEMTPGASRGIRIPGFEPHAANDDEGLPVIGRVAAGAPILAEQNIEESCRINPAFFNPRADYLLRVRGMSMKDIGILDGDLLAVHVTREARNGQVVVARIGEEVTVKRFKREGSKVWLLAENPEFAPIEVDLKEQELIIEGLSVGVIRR
T5 sequence (P0A7C2 whole entry): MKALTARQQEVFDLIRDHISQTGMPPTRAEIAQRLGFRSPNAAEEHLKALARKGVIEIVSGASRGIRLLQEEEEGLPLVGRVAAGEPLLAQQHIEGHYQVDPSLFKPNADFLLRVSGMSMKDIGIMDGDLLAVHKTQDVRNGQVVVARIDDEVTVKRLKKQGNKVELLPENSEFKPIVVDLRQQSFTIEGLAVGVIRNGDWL
T4 sequence (P0A7C2 whole entry): as above
T3 sequence (P0A7C2 whole entry S119A): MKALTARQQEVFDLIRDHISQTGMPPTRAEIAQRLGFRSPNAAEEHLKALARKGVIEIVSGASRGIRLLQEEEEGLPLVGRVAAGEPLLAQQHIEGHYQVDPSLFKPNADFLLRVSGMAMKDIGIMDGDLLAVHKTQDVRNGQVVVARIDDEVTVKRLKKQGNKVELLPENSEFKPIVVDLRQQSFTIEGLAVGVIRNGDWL

As to `Cc1ccc(NC(=O)c2nnn(CC(=O)Nc3ccccc3C)c2N)cc1C` [Compound 5], the “rank order of activities, ortho mono-substitution on area A phenyl” value in data set [1] is recorded as “Me (5) > Et (22) > OMe (23) > OEt (24) = H (2)”. In addition, the solubility in data set [2] is at least 111 µM. The same molecule gave an IC50 in data set [3] of 17 ± 2 µM.

On to `CCOc1ccc(NC(=O)Cn2nnc(C(=O)Nc3ccccc3C)c2N)cc1` [Compound 9], for which, in data set [1], the “activity in FlAsH-LexA cleavage assay (in words)” value (“activity” for short) is given as “not tolerated”. Also, the half-inhibitory concentration (IC50) in data set [3] is over 100 µM.

Regarding `CCOc1ccc(NC(=O)Cn2nnc(C(=O)Nc3ccc(C)c(C)c3)c2N)cc1` [Compound 1], the solubility in data set [2] is at least 111 µM. The IC50 in data set [4] was determined as 130 ± 28 µM; in data set [3] it was 32 ± 6 µM. Besides, half-maximal cytotoxicity in [5] (CC50) was put at 277 µM.

As for `Cc1ccc(NC(=O)c2nnn(CC(=O)NC3CCCCC3)c2N)cc1C` [Compound 3], the “activity” value in data set [1] is listed as “returned activity”. In addition, the solubility in data set [2] is at least 111 µM. The molecule further showed an IC50 in data set [3] of 44 ± 4 µM.

Consider `Cc1ccc(NC(=O)c2nnn(CC(=O)Nc3ccccc3)c2N)cc1C` [Compound 2], for which, in data set [1], the “rank order of activities, ortho mono-substitution on area A phenyl” value is recorded as “Me (5) > Et (22) > OMe (23) > OEt (24) = H (2)” and the “activity” value is on record as “loss of activity”. The molecule further showed an IC50 in [3] of over 100 µM.

`O=C(O)c1cn(C2CC2)c2cc(N3CCNCC3)c(F)cc2c1=O` [ciprofloxacin, reference compound]: in the data set on ΔtolC E. coli [6] (sub-MIC concentration 1.25 ng/mL), the “mutation rate, ciprofloxacin alone” value is “produced an induction of mutagenesis”. The MIC in the data set on ΔtolC E. coli [7] amounted to 5 ng/mL.

For the molecule `Cc1ccc(NC(=O)Cn2nnc(C(=O)Nc3ccc(C)c(C)c3)c2N)cc1` [Compound 7], the solubility in [2] was at least 111 µM. Moreover, the IC50 in data set [3] was found to be 18 ± 1 µM.

With `Cc1ccc(NC(=O)c2nnn(CC(=O)NC3CCCCCC3)c2N)cc1C` [Compound 4], the “activity” value in data set [1] is reported as “returned activity”. Further, the solubility in data set [2] is at least 111 µM. 22 ± 3 µM corresponded to half-maximal inhibition in data set [3] (IC50).

For the molecule `CCOc1ccc(NC(=O)Cn2nnc(C(=O)Nc3cccnc3)c2N)cc1` [Compound 13], the “activity” value in [1] is “tolerated”. Also, in data set [2], the solubility is at least 111 µM. The IC50 in [3] is 40 ± 3 µM.

`Cc1cccc(NC(=O)Cn2nnc(C(=O)Nc3ccc(C)c(C)c3)c2N)c1` [Compound 6]: in data set [1], the “activity” value is reported as “not tolerated”. The molecule also came in with an IC50 in data set [3] of over 100 µM.

Turning to `CCOC(=O)c1ccc(NC(=O)c2nnn(CC(=O)Nc3ccc(OCC)cc3)c2N)cc1` [Compound 12], the “activity” value in data set [1] is given as “tolerated”. Also, the solubility in data set [2] is at least 111 µM. Further, inhibition in [3] was half-maximal at 19 ± 3 µM (IC50).

For `Cc1ccc(NC(=O)Cn2nnc(C(=O)Nc3ccc(C)c(C)c3)c2N)c(C)c1` [Compound 8], the “activity” value in data set [1] was “tolerated but not significantly superior to ortho-substitution alone”. The solubility in data set [2] is at least 111 µM. The molecule also registered an IC50 in [3] of 15 ± 2 µM.

Take `CCOc1ccc(NC(=O)Cn2nnc(C(=O)Nc3ccccc3)c2N)cc1` [Compound 14, 5-amino-1-{2-[(4-ethoxyphenyl)amino]-2-oxoethyl}-N-phenyl-1H-1,2,3-triazole-4-carboxamide]: the solubility in data set [2] was at least 111 µM. The IC50 was found to be 32 ± 2 µM in data set [8]; 5.9 ± 0.4 µM in [4]; 10 ± 1 µM in [10]; 15.2 ± 2.5 µM against full length E. coli LexA [11]; 9 ± 1 µM in [3]. In addition, the “effect on LexA DNA binding (EMSA)” value in [9] is given as “not impacted”. In [5], this molecule displayed a CC50 of over 500 µM. In addition, the “suppression of ciprofloxacin-induced appearance of resistance to rifampicin” value with ΔtolC E. coli [6] (100 μM compound) is “effective in reducing the appearance of resistance to rifampicin”. For the same molecule, the “decrease in per generation mutation rate relative to ciprofloxacin alone” value in the data set on ΔtolC E. coli [6] (100 μM compound + ciprofloxacin 1.25 ng/mL, rifampin resistance, 48 h) is “approximately threefold”. Also, the “mutation rate, compound alone” value in the data set with ΔtolC E. coli [6] (100 μM compound, no ciprofloxacin) is reported as “comparable to DMSO alone controls”. At full length E. coli LexA [12], the Tm was 67.0 ± 0.1 °C.

Take `CCOc1ccc(NC(=O)Cn2nnc(C(=O)Nc3ccc(C)cc3)c2N)cc1` [Compound 11]: the “activity” value in data set [1] was “allowed”. Further, the solubility in data set [2] is at least 111 µM. Also, the IC50 in data set [3] amounted to 15 ± 2 µM.

As to `CCOc1ccc(NC(=O)Cn2nnc(C(=O)Nc3cccc(C)c3)c2N)cc1` [Compound 10], in data set [1], the “activity” value is listed as “allowed”. For the same molecule, in data set [2], the solubility is at least 111 µM. Further, the IC50 in [3] amounted to 33 ± 4 µM.

These data come from PMC6305444, “Advancement of the 5-Amino-1-(Carbamoylmethyl)-1H-1,2,3-Triazole-4-Carboxamide Scaffold to Disarm the Bacterial SOS Response” (Frontiers in Microbiology, 2018).
